Results on 21 compounds are retold here after ChEMBL document CHEMBL5634071, “Fluorine in anti-HIV drugs approved by FDA from 1981 to 2023” (Eur J Med Chem, 2023).

Molecules are shown by their SMILES. pIC50, pKd, pKi: −log10 of the molar value.

Data set [1] can be described thus: Cytotoxicity against human CEM cells measured after 6 days. The note with it: CEM cells (CCRF-CEM).
For data set [2], the system named is Human immunodeficiency virus 1. Nature of the data set: Antiviral activity against HIV-1 LAV infected in human CEM cells. The data set is classed as functional, organism-based. The note with it: Human immunodeficiency virus 1, LAV, CCRF-CEM.
Data set [3] deals with hERG (Homo sapiens, UniProt Q12809). Nature of the data set: Inhibition of tritium labelled dofetilide binding to hERG expressed in HEK293 cells at 300 nM relative to control. The data set is classed as toxicity, cell-based. Particulars: HEK293 cells that express hERG, probe tritium labelled dofetilide. In general terms: Block of hERG is tested as a sign of cardiac risk.
In data set [4] the test system is Human immunodeficiency virus. Nature of the data set: Antiviral activity agaisnt HIV BAL infected in human PM1 cells assessed as inhibition of viral replication. Format: functional, organism-based. The note with it: Human immunodeficiency virus 1, BAL.
Data set [5] deals with Human immunodeficiency virus 1. The experiment in a line: Antiviral activity against HIV-1 RF infected in human MT4 cells assessed as reduction in viral RNA production measured after 3 days by plaque assay. The data set is classed as functional. The note with it: Human immunodeficiency virus 1, RF, MT4, 72 h; time 3 day.
Data set [6] has as its target Human immunodeficiency virus type 1 protease (Human immunodeficiency virus 1, UniProt Q72874). Nature of the data set: Inhibition of HIV-1 protease.
In data set [7] the test system is Human immunodeficiency virus 1. The experiment in a line: Antiviral activity against HIV-1 IIIB infected in human H9 cells. The data set is classed as functional, organism-based. Particulars: Human immunodeficiency virus 1, IIIB.
Data set [8] is described as follows: Cytotoxicity against human CEM cells. The data set is classed as toxicity, cell-based. The note with it: CEM cells (CCRF-CEM).
For data set [9], the system named is Human immunodeficiency virus 1. Nature of the data set: Antiviral activity against HIV-1 NL4-3 infected in human MT4 cells assessed as reduction in virus induced cytopathic effect by XTT assay. Format: functional, organism-based. The note with it: Human immunodeficiency virus 1, NL4-3, MT4. On the technique in general: Damage to the host cells serves as the signal in cytopathic effect assays.

Data set [10] concerns Human immunodeficiency virus 1. The experiment in a line: Antiviral activity against NNRTI-resistant HIV-1 harboring Y181C mutant assessed as inhibition of viral growth. Format: functional.
The subject of data set [11] is Human immunodeficiency virus 1. Nature of the data set: Antiviral activity against NNRTI-resistant HIV-1 harboring K103N/Y181C double mutant assessed as inhibition of viral growth. Format: functional.
Data set [12] has as its system Human immunodeficiency virus 1. The experiment in a line: Antiviral activity against NNRTI-resistant HIV-1 harboring K103N mutant assessed as inhibition of viral growth. The data set is classed as functional.
Data set [13] addresses Cytochrome P450 2D6 (Homo sapiens, UniProt P10635). Nature of the data set: Inhibition of CYP2D6 (unknown origin). Format: ADME.
Data set [14] addresses C-C chemokine receptor type 5 (Homo sapiens, UniProt P51681). Nature of the data set: Displacement of [125I]MIP-1alpha from CCR5 receptor (unknown origin) expressed in HEK293 cells. Format: cell-based. Background: Displacement assays read how much labelled ligand stays bound in the presence of the test substance.
A short description of data set [15]: Half-life in human administered as single dose. Format: ADME.
Data set [16] concerns the target T1, DNA polymerase subunit gamma-1 (Homo sapiens) (UniProt P54098).
T1 sequence (whole entry): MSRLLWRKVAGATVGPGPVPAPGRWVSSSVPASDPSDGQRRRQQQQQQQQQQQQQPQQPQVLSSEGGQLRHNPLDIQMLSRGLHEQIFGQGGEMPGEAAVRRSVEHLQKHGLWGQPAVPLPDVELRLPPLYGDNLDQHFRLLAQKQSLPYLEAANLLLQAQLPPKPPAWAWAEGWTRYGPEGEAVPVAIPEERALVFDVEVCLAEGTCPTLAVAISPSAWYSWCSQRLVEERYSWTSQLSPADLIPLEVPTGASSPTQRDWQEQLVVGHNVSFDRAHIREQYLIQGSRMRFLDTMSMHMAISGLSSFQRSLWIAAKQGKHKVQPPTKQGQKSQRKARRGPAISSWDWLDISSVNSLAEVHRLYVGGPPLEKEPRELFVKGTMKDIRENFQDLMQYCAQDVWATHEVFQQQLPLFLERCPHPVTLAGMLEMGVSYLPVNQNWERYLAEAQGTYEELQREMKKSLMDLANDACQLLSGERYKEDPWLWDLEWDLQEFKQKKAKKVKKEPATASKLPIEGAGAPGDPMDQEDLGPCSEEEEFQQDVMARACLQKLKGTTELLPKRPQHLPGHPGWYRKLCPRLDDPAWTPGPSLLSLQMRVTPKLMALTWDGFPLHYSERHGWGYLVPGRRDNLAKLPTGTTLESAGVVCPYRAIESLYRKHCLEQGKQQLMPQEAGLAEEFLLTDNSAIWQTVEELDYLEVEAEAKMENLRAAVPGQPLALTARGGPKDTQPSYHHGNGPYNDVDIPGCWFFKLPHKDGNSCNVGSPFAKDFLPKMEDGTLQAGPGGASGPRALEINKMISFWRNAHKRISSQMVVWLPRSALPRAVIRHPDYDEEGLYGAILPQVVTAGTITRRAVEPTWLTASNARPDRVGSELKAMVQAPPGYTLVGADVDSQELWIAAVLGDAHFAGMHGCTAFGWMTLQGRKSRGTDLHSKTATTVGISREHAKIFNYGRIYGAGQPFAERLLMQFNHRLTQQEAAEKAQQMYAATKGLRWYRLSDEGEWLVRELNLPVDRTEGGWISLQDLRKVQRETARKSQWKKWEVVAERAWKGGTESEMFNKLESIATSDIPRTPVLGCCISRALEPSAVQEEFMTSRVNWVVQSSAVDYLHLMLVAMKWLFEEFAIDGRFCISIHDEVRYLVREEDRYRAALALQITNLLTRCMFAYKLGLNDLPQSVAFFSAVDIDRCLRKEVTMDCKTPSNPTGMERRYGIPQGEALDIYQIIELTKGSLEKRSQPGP
Nature of the data set: Ratio of K for biding affinity to human DNA polymerase gamma assessed as polymerization rate to Kd for binding affinity to human DNA polymerase gamma.

Data set [17] has as its target T1, DNA polymerase subunit gamma-1 (Homo sapiens). The experiment in a line: Binding affinity to human DNA polymerase gamma assessed as polymerization rate.
Data set [18] has as its target T2, DNA polymerase subunit gamma-1 (Homo sapiens, UniProt P54098).
T2 sequence (P54098 whole entry): T1 sequence (whole entry)
Nature of the data set: Binding affinity to human DNA polymerase gamma assessed as dissociation constant.

Data set [19] can be described thus: Inhibition of HIV integrase. The arrangement: species or system Human immunodeficiency virus.
Data set [20] relates to Human immunodeficiency virus. Nature of the data set: Antiviral activity against HIV IIIB infected in human MT4 cells. Format: functional, organism-based. Particulars: Human immunodeficiency virus 1, IIIB.

Cytochrome P450 2D6, sequence (P10635 whole entry): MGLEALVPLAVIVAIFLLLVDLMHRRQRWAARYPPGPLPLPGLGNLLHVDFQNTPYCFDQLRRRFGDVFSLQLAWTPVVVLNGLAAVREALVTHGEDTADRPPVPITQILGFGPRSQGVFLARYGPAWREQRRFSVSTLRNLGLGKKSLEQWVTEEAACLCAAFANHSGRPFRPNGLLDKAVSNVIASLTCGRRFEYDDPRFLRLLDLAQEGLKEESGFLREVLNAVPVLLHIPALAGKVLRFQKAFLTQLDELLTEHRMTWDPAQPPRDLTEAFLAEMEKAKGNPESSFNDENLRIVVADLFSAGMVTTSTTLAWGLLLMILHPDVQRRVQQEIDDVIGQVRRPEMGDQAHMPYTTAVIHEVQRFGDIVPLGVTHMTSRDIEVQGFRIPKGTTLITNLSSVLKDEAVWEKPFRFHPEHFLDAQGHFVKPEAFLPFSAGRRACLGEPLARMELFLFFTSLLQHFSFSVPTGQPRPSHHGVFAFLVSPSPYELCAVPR
C-C chemokine receptor type 5, sequence (P51681 whole entry): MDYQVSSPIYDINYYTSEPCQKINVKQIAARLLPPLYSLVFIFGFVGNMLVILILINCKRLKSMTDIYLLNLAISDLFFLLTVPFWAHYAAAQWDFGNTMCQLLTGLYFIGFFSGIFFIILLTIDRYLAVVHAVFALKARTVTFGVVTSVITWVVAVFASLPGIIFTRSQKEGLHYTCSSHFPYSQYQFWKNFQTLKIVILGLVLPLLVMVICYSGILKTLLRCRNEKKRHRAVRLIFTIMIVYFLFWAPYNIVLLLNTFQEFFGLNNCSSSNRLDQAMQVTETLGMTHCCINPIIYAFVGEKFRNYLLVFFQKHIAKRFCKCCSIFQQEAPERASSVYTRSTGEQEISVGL
hERG, sequence (Q12809 whole entry): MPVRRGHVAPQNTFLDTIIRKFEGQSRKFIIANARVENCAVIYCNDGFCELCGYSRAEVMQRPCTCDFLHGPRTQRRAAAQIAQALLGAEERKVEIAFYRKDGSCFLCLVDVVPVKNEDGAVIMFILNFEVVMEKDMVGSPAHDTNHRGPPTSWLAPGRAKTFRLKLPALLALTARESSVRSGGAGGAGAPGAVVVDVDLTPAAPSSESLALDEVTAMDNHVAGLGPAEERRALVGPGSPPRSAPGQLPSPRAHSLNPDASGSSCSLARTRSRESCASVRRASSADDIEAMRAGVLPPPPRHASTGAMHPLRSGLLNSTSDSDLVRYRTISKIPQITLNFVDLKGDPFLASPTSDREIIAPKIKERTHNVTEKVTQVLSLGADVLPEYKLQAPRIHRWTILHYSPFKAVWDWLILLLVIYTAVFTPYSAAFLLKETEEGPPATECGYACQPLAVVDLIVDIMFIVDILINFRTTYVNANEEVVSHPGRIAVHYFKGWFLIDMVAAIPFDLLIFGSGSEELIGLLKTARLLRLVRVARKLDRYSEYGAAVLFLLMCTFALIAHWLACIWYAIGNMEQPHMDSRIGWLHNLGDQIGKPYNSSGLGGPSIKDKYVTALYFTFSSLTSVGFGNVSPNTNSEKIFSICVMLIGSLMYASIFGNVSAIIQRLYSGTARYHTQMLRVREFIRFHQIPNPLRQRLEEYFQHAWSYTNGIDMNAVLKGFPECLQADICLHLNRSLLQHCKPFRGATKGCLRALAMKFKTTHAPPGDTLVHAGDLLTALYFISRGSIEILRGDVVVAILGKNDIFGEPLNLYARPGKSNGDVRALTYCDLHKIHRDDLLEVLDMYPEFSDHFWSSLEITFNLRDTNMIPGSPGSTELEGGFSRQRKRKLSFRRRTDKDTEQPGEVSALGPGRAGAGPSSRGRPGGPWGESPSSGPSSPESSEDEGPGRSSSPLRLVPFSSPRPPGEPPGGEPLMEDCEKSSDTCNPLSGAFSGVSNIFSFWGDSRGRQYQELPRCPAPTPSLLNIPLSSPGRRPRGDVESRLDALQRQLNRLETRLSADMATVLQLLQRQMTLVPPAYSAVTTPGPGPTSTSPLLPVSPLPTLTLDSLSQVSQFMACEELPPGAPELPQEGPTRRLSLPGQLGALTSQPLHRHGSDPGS

In general, CC50 refers to the concentration at which the toxic effect on the cells reaches its halfway point. High values mean better tolerance by the cells, low ones harm at low concentration. In general, pIC50 refers to the negative decadic logarithm of the IC50, by convention in mol/L. In the case of `Nc1nc(=O)n([C@H]2CS[C@@H](CO)O2)cc1F`, the CC50 at 144 h in [1] is over 100000 nM. Besides, the pIC50 in [2] is 5.85. By inhibition is commonly meant the drop in the measured response relative to a control, in per cent. What is called IC90 is the concentration needed for an effect of 90%. In [3], `Cc1nnc(C(C)C)n1C1CC2CCC(C1)N2CC[C@H](NC(=O)C1CCOCC1)c1ccccc1` (some centres undefined) displayed an inhibition at 0.3 µM of 0%. The IC90 in [4] is 125 nM. As to `O=C1Nc2ccc(Cl)cc2[C@@](C#CC2CC2)(C(F)(F)F)N1`, the IC90 in data set [5] came to 2 nM. On to `Nc1nc(=O)n(C2CSC(CO)O2)cc1F` (racemic) [EMTRICITABINE, (+/-)-], for which the CC50 at 144 h in [1] was over 100000 nM. Further, the negative logarithm of the IC50 (pIC50) in data set [2] is 7.10. The term pKi denotes the negative decadic logarithm of the Ki, by convention in mol/L. The low end stands for a high Ki, the high end for a low Ki. With `CCC[C@]1(CCc2ccccc2)CC(O)=C([C@H](CC)c2cccc(NS(=O)(=O)c3ccc(C#N)cn3)c2)C(=O)O1`, in data set [6], the pKi was 10.40. In [7], the pIC50 is 6.96 and it took 890 nM to reach the 90% level (IC90).

As to `Nc1ccn([C@H]2CS[C@@H](CO)O2)c(=O)n1`, in [8], the CC50 was 2700 nM. This compound had a pIC50 in data set [2] of 7.00. Turning to `Cc1[nH]c2ccccc2c1CC(=O)N[C@@H](Cc1ccccc1)C(=O)N(C)c1ccccn1`, the pIC50 in data set [9] is 6.10.

For `O=C1Nc2ccc(Cl)cc2[C@@](/C=C/C2CC2)(C(F)(F)F)N1`, in [5], the IC90 amounted to 2.1 nM.

`Cc1nnc(C(C)C)n1[C@H]1C[C@H]2CC[C@@H](C1)N2CC[C@H](NC(=O)C1CCC(F)(F)CC1)c1ccccc1` [MARAVIROC]: in [4], the IC90 amounted to 1 nM.

On to `Cc1nnc(C(C)C)n1C1CC2CCC(C1)N2CC[C@H](NC(=O)CCC(F)(F)F)c1ccccc1` (some centres undefined), for which the IC90 in [4] came to 14 nM. One may read the IC95 as the concentration at which the effect reaches the 95% level. `Cn1c(Cn2ccc(C(F)(F)F)c(Oc3cc(Cl)cc(C#N)c3)c2=O)n[nH]c1=O` [DORAVIRINE]: the IC95 in [10] is 27 nM; in data set [11], 55 nM; in data set [12], 43 nM.

Turning to `Cc1nc2ccccc2n1C1CCN(CCC(c2ccccc2)c2ccccc2)CC1`, the pIC50 in data set [13] is 6.15; in data set [14], 8.40. The compound `Cc1nc2ccccc2n1C1CCN(CC[C@@H](NC(=O)c2ccccc2)c2ccccc2)CC1` gave a pIC50 in data set [14] of 6.24.

What is called half-life is the time in which the quantity being followed falls by half. Regarding `O=C1Nc2ccc(Cl)cc2[C@@](C#CC2CC2)(C(F)(F)F)O1` [EFAVIRENZ], the half-life in data set [15] was under 52 h. In [5], the 90% effect concentration (IC90) is 1.7 nM. As to `Cc1[nH]c2ccccc2c1CC(=O)N[C@@H](Cc1ccccc1)C(=O)N(C)c1ccccc1`, the pIC50 in [9] was 6.24.

For orientation: pKd means −log10 of the Kd, conventionally taken in molar units. As to `Nc1ccn([C@@H]2CS[C@H](COP(=O)(O)OP(=O)(O)OP(=O)(O)O)O2)c(=O)n1` [LAMIVUDINE TRIPHOSPHATE], the Ratio in [16] was found to be 0.01 µM⁻¹ s⁻¹. The K in data set [17] was determined as 0.13 s⁻¹. For the same compound, in [18], the pKd is 4.89. Turning to `Cc1nc2ccccc2n1C1CCN(CC[C@H](NC(=O)C2CCC2)c2ccccc2)CC1`, the pIC50 in [4] is 7.14. Compound `C[C@@H]1CCO[C@H]2Cn3cc(C(=O)NCc4ccc(F)cc4F)c(=O)c(O)c3C(=O)N12` [DOLUTEGRAVIR] showed a pIC50 in data set [19] of 8.57. In data set [8], `Nc1ccn([C@H]2CSC(CO)O2)c(=O)n1` (mixture of isomers) displayed a CC50 of 52600 nM. In [2], the pIC50 was 7.15. `O=C1Nc2ccc(Cl)cc2[C@](C#Cc2ccccn2)(C2CC2)N1` had a pIC50 in data set [20] of 5.03. `Cc1nc2cnccc2n1C1CCN(CCC(c2ccccc2)c2ccccc2)CC1` had a pIC50 in data set [13] of 7.40.
